The source of these data is US7605175B2, “Inhibitors of cyclin-dependent kinases, compositions and uses related thereto” (GPC Biotech AG, priority 2001, dated 2009).

Molecules are shown by their SMILES.

Holding throughout (settings): Table 6
For one test, the target named is T1, Cdc2/cyclin B (Homo sapiens, UniProt P06493).
T1 construct: purchased
Kind of test: Biochemical kinase assay Cdc2/cyclin B. The text has this:
(§1) Enzymes: Cdc2/cyclin B was obtained from commercial sources. Cdk2/his-cyclin Eshort was expressed in Sf9 cells. Cdk2/cyclin A, cdk4/cyclin D1, and cdk6/cyclin D2 were expressed in Sf9 cells. Protein kinase A (catalytic subunit, from bovine heart) and protein kinase C (mixed isozymes from rat brain) were obtained from commercial sources.
(§2) Substrates: Histone H1 was from commercial sources. GST-Rb is glutathione-S-trans-ferase fused to the N-terminal of residues 379-928 of the Rb protein.
Assays: Cdc2/cyclinB activity was determined by measuring incorporation of radio-activity from adenosine [γ-^32P]triphosphate into Histone H1 using a TCA precipitation assay. Cdc2/cyclin B kinase and Histone H1 were obtained from commercial sources. The final assay solution contained 50 mM Tris.HCl, 10 mM MgCl2, 1 mM dithiothreitol, 50 μM adenosine triphosphate, 2 μCi ^32P, 10% dimethylsulfoxide (from compounds), pH 7.5, 20 μg Histone H1, 6 U enzyme in a 50 μL volume. Compounds were added at various concentrations between 1 nM and 10 μM. The reaction was started with the addition of enzyme, allowed to proceed for 20 min at 30° C., and stopped by the addition of 20 μL of stop solution (237 mM disodium ethylenediamine tetraacetate, 105 mM adenosine triphosphate, pH 8.0). The protein was precipitated by the addition of 35 μL 70% (w/v) trichloroacetic acid, and the precipitate was captured on a 96-well glass fiber filter plate (Millipore, Inc.), which had been wet with 25% (w/v) trichloroacetic acid. The filter was washed ten times with 25% (w/v) trichloroacetic acid, and the amount of incorporated ^32P was determined by scintillation counting after adding 100 μL scintillant (Microscint 20, Packard Instruments). Relative activity was determined by dividing the amount of radioactivity incorporated in the presence of compound by the amount of radioactivity incorporated in a control experiment containing DMSO alone but no compound. The background radioactivity, determined in an experiment containing 50 mM EDTA in place of compound, was subtracted from all results before calculations.

In another test the target is T2, Cdk2/cyclin E (Homo sapiens, UniProt P24941).
T2 construct: made in house; host or cells: Sf9 insect cells
Kind of test: Biochemical kinase assay Cdk2/cyclin E.
Excerpt: as §1, §2
(§3) Cdk2/cyclin E, Cdk2/cyclin A, Cdk4/cyclin D1, and Cdk6/cyclin D2 activity was determined using a glutathione-sepharose capture assay. The enzymes were expressed in Sf9 insect cells as heterodimers, and the substrate (GST-Rb) was glutathione-S-transferase fused to residues 379 to 928 of Rb retinoblastoma protein, expressed in E. coli. The assay solution contained 50 mM Tris.HCl, 10 mM MgCl2, 1 mM dithiothreitol, 50 μM adenosine triphosphate, 2 μCi [γ-^33P]adenosine triphosphate, 10% dimethylsulfoxide (from compounds), pH 7.5, 40 μg GST-Rb, and enzyme in a 100 μL volume. Compounds were added at various concentrations between 1 nM and 10 μM. The reaction was allowed to proceed for 15 min at 30° C. and was stopped by the addition of 70 μL of stop solution (237 mM disodium ethylene-diamine tetraacetate, 105 mM adenosine triphosphate, pH 8.0). The GST-Rb was captured by binding to glutathione-sepharose bead (Amersham) for 110 min, and the suspension was filtered through a glass fiber filter. After washing the retained beads five time with phosphate-buffered saline containing 0.3% (w/v) Tween-20, the amount of ^33P incorporated was determined by scintillation counting after adding 100 μL scintillant. Relative activity was determined by dividing the amount of radioactivity incorporated in the presence of compound by the amount of radioactivity incorporated in a control experiment containing DMSO alone but no compound. The background radioactivity, determined in an experiment containing 50 mM disodium ethylenediamine tetraacetate in place of compound, was subtracted from all results before calculations.

For a further test, the target named is T3, Cdk4/cyclin D1 (Homo sapiens, UniProt P11802).
T3 construct: made in house; host or cells: Sf9 insect cells
T3 sequence (P11802 whole entry, species assumed): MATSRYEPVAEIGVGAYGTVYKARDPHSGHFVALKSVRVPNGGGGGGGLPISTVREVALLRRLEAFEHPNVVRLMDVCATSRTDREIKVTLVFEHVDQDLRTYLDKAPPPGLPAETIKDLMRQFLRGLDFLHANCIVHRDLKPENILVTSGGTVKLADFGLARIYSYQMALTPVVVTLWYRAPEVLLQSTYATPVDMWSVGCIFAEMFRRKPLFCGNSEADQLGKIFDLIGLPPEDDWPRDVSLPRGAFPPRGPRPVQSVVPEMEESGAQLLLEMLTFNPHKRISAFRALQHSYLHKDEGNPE
T3 sequence (P24385 whole entry partner, species assumed): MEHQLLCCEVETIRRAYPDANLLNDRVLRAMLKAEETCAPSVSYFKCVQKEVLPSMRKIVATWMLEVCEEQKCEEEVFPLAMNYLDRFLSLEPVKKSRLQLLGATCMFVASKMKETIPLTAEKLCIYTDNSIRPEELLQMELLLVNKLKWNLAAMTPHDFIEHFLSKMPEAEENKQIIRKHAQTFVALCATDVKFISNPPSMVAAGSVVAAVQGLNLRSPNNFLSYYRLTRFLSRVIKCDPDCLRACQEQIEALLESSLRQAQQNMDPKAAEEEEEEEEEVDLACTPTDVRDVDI
As to the kind of experiment: Biochemical kinase assay Cdk4/cyclin D1.
Excerpt: as §1, §2, §3

T1 sequence (P06493 whole entry, species assumed): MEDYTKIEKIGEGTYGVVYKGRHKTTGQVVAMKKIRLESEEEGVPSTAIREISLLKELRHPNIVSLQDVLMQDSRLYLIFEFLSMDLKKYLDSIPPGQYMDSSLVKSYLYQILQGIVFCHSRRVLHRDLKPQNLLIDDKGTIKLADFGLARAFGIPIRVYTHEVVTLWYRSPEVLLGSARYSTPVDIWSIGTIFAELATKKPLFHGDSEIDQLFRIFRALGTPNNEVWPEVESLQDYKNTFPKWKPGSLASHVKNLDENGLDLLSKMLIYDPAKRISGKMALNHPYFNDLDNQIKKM
T1 sequence (P14635 whole entry partner, species assumed): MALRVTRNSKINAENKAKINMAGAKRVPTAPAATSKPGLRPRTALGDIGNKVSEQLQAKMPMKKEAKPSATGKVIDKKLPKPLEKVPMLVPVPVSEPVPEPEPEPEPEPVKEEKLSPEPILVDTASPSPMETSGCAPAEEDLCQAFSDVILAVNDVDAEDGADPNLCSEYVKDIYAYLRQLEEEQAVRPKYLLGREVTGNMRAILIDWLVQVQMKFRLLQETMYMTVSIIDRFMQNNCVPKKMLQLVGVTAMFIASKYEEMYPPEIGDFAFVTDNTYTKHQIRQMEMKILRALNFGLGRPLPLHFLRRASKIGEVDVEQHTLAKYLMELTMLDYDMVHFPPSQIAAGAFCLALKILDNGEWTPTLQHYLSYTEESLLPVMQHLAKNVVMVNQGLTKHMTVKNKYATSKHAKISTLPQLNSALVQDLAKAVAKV

For orientation: IC50 means the point on the concentration scale where inhibition reaches its midpoint. Lower therefore signals greater potency in that assay. For the compound `CC(C)N1CCN(CCOc2ccc(-c3n[nH]c4c3C(=O)c3c(NC(=O)NN5CCOCC5)cccc3-4)cc2F)CC1` [Compound A22], the half-maximal inhibitory concentration (IC50) was less than 100 nM at Cdc2/cyclin B, less than 10 nM on Cdk2/cyclin E and less than 100 nM against Cdk4/cyclin D1.
Turning to `O=C(Nc1cccc2c1C(=O)c1c-2n[nH]c1-c1ccc(OCC(=O)N2CCCC2)cc1)NN1CCOCC1` [Compound A46], the IC50 on Cdc2/cyclin B is less than 10 nM; against Cdk2/cyclin E, less than 100 nM; against Cdk4/cyclin D1, less than 1000 nM.
As to `CN(C)C(=O)COc1ccc(-c2[nH]nc3c2C(=O)c2c(NC(=O)NN4CCOCC4)cccc2-3)cc1` [Compound A34], the IC50 was less than 100 nM against Cdc2/cyclin B, less than 10 nM against Cdk2/cyclin E and less than 100 nM against Cdk4/cyclin D1.
Consider `O=C(Nc1cccc2c1C(=O)c1c(-c3ccc(OCc4nnn[nH]4)cc3)n[nH]c1-2)NN1CCOCC1` [Compound A74], for which the IC50 against Cdc2/cyclin B and against Cdk2/cyclin E was less than 100 nM throughout.
Consider `CN(C)C(=O)CN1CCN(NC(=O)Nc2cccc3c2C(=O)c2c-3n[nH]c2-c2ccc(OCCN3CCCC3)cc2)CC1` [Compound A41], for which the values for the IC50 against Cdc2/cyclin B, against Cdk2/cyclin E and against Cdk4/cyclin D1 were less than 1000 nM, less than 100 nM and less than 100 nM, respectively.
`O=C(Nc1cccc2c1C(=O)c1c-2n[nH]c1-c1ccc(S(=O)(=O)N2CCNCC2)cc1)NN1CCOCC1` [Compound A56]: the concentration for half-maximal inhibition (IC50) is less than 100 nM at Cdc2/cyclin B, less than 100 nM on Cdk2/cyclin E and less than 1000 nM against Cdk4/cyclin D1.
For `Cc1cc(OCCN2CCOCC2)ccc1-c1[nH]nc2c1C(=O)c1c(NC(=O)NN3CCN(C)CC3)cccc1-2` [Compound A7], the concentration for half-maximal inhibition (IC50) at Cdc2/cyclin B, against Cdk2/cyclin E and against Cdk4/cyclin D1 was less than 100 nM in each case.
In the case of `CC(C)N1CCN(S(=O)(=O)c2ccc(-c3[nH]nc4c3C(=O)c3c(NC(=O)NN5CCOCC5)cccc3-4)cc2)CC1` [Compound A57], the figures for the half-inhibitory concentration (IC50) at Cdc2/cyclin B, on Cdk2/cyclin E and on Cdk4/cyclin D1 were less than 10 nM, less than 10 nM and less than 100 nM, respectively.
With `O=C(Nc1cccc2c1C(=O)c1c(-c3ccc(CN4CC[C@@H](O)C4)cc3)n[nH]c1-2)NN1CCOCC1` [Compound B8], the IC50 against Cdc2/cyclin B was less than 100 nM.
`CC(C)c1nn(-c2c(Cl)cc(Cl)cc2Cl)c2nc(Cc3ccc(NS(=O)(=O)CCCN4CCCC4)cc3)[nH]c(=O)c12` [Compound A38]: the IC50 was less than 1000 nM at Cdc2/cyclin B, less than 100 nM against Cdk2/cyclin E and less than 1000 nM against Cdk4/cyclin D1.
As to `Cc1cc(-c2[nH]nc3c2C(=O)c2c(NC(=O)NN4CCN(C)CC4)cccc2-3)ccc1OCCN1CCN(C(C)C)CC1` [Compound A18], the IC50 against Cdc2/cyclin B, against Cdk2/cyclin E and at Cdk4/cyclin D1 was less than 100 nM each time.
Consider `Cc1cc(OCCN2CCCC2)ccc1-c1[nH]nc2c1C(=O)c1c(NC(=O)NN3CCOCC3)cccc1-2` [Compound A29], for which the IC50 is less than 100 nM against Cdc2/cyclin B, less than 10 nM against Cdk2/cyclin E and less than 100 nM against Cdk4/cyclin D1.
The compound `O=C(Nc1cccc2c1C(=O)c1c(-c3ccc(CNCc4cccnc4)cc3)n[nH]c1-2)NN1CCOCC1` [Compound B12] had an IC50 at Cdc2/cyclin B of less than 100 nM.
Consider `CC(C)c1nn(-c2c(Cl)cccc2Cl)c2nc(Cc3ccc(OCCO)cc3)[nH]c(=O)c12` [Compound A59], for which the half-maximal inhibitory concentration (IC50) is less than 100 nM on Cdc2/cyclin B, less than 100 nM at Cdk2/cyclin E and less than 1000 nM on Cdk4/cyclin D1.
Take `O=C(Nc1cccc2c1C(=O)c1c-2n[nH]c1-c1ccc(OCC(=O)N2CCOCC2)cc1)NN1CCOCC1` [Compound A36]: the half-maximal inhibitory concentration (IC50) against Cdc2/cyclin B, on Cdk2/cyclin E and against Cdk4/cyclin D1 was less than 100 nM each time.
For the compound `O=C(Nc1cccc2c1C(=O)c1c(-c3ccc(CN4CCOCC4)cc3)n[nH]c1-2)NN1CCOCC1` [Compound A47], the concentration for half-maximal inhibition (IC50) at Cdc2/cyclin B and at Cdk2/cyclin E was less than 100 nM in each case.
Take `O=C(Nc1cccc2c1C(=O)c1c-2n[nH]c1-c1ccc(O)c(CN2CCOCC2)c1)NN1CCOCC1` [Compound A10]: the concentration for half-maximal inhibition (IC50) at Cdc2/cyclin B is less than 10 nM; at Cdk2/cyclin E, less than 100 nM; on Cdk4/cyclin D1 it was less than 1000 nM.
Compound `O=C(Nc1cccc2c1C(=O)c1c(-c3ccc(CNCCO)cc3)n[nH]c1-2)NN1CCOCC1` [Compound B10] gave an IC50 against Cdc2/cyclin B of less than 100 nM.
As for `Cc1nc(Cc2nc3c(c(C(C)C)nn3-c3c(Cl)cccc3Cl)c(=O)[nH]2)cs1` [Compound A58], the half-inhibitory concentration (IC50) against Cdc2/cyclin B is less than 10000 nM; on Cdk2/cyclin E, less than 10 nM; on Cdk4/cyclin D1, less than 10000 nM.
Take `O=C(Nc1cccc2c1C(=O)c1c-2n[nH]c1-c1ccc(OCCN2CCOCC2)cc1)NN1CCOCC1` [Compound A3]: the half-inhibitory concentration (IC50) on Cdc2/cyclin B, at Cdk2/cyclin E and against Cdk4/cyclin D1 was less than 100 nM throughout.
Regarding `CN1CCN(Cc2ccc(-c3n[nH]c4c3C(=O)c3c(NC(=O)NN5CCOCC5)cccc3-4)cc2)CC1` [Compound A49], the half-maximal inhibitory concentration (IC50) against Cdc2/cyclin B and against Cdk2/cyclin E was less than 100 nM each time.
On to `CCOC(=O)COc1ccc(-c2[nH]nc3c2C(=O)c2c(NC(=O)NN4CCOCC4)cccc2-3)cc1` [Compound A65], for which the figures for the 50% inhibitory concentration (IC50) on Cdc2/cyclin B, on Cdk2/cyclin E and against Cdk4/cyclin D1 were less than 10 nM, less than 100 nM and less than 100 nM, respectively.
Regarding `CC(C)N1CCN(CCCOc2ccc(-c3[nH]nc4c3C(=O)c3c(NC(=O)NN5CCOCC5)cccc3-4)cc2)CC1` [Compound A20], the IC50 against Cdc2/cyclin B is less than 10 nM; on Cdk2/cyclin E, less than 10 nM; at Cdk4/cyclin D1, less than 100 nM.
Turning to `O=C(Nc1cccc2c1C(=O)c1c(-c3ccc(OCCN4CCOCC4)cc3Cl)n[nH]c1-2)NN1CCOCC1` [Compound A28], the 50% inhibitory concentration (IC50) is less than 100 nM against Cdc2/cyclin B, less than 100 nM on Cdk2/cyclin E and less than 1000 nM against Cdk4/cyclin D1.
As for `O=C(Nc1cccc2c1C(=O)c1c(-c3ccc(CN4CCCC4)cc3)n[nH]c1-2)NN1CCOCC1` [Compound A51], the IC50 on Cdk2/cyclin E is less than 100 nM.
Still for that read-out and setting: then `O=C(Nc1cccc2c1C(=O)c1c(-c3ccc(CN4CCC[C@H]4CO)cc3)n[nH]c1-2)NN1CCOCC1` [Compound B6], with less than 100 nM.
`CCOC(=O)C1CCN(Cc2ccc(-c3n[nH]c4c3C(=O)c3c(NC(=O)NN5CCOCC5)cccc3-4)cc2)CC1` [Compound B9]: the half-inhibitory concentration (IC50) on Cdc2/cyclin B was less than 100 nM.
As for `O=C(Nc1cccc2c1C(=O)c1c(-c3ccc(CN4CCC(O)CC4)cc3)n[nH]c1-2)NN1CCOCC1` [Compound B5], the IC50 against Cdk2/cyclin E is less than 100 nM.
Same read-out and setting: the same measure for `O=C(Nc1cccc2c1C(=O)c1c(-c3ccc(CN4CCN(c5cccc(C(F)(F)F)c5)CC4)cc3)n[nH]c1-2)NN1CCOCC1` [Compound B7]: less than 100 nM.
In the case of `O=C(Nc1cccc2c1C(=O)c1c(-c3ccc(CN(CCO)CCO)cc3)n[nH]c1-2)NN1CCOCC1` [Compound B2], the IC50 against Cdc2/cyclin B is less than 10 nM; at Cdk2/cyclin E it was less than 100 nM.
At Cdk2/cyclin E, `O=C(Nc1cccc2c1C(=O)c1c(-c3ccc(CN4CCN(c5ccccn5)CC4)cc3)n[nH]c1-2)NN1CCOCC1` [Compound A82] returned a half-maximal inhibitory concentration (IC50) of less than 100 nM.
Consider `COc1ccc(Cc2nc3c(c(C(C)C)nn3-c3c(Cl)cccc3Cl)c(=O)[nH]2)cc1` [Compound A67], for which the half-inhibitory concentration (IC50) at Cdc2/cyclin B is less than 100 nM; against Cdk2/cyclin E, less than 10 nM.
On Cdk2/cyclin E, `O=C(Nc1cccc2c1C(=O)c1c(-c3ccc(CNC(CO)CO)cc3)n[nH]c1-2)NN1CCOCC1` [Compound B1] gave an IC50 of less than 10 nM.
Still for that read-out and setting: the same measure for `O=C(Nc1cccc2c1C(=O)c1c(-c3ccc(CNCCOCCO)cc3)n[nH]c1-2)NN1CCOCC1` [Compound B4]: less than 100 nM.
In the case of `O=C(Nc1cccc2c1C(=O)c1c(-c3ccc(CN4CCN(CCO)CC4)cc3)n[nH]c1-2)NN1CCOCC1` [Compound B3], the IC50 was less than 10 nM on Cdc2/cyclin B and less than 100 nM against Cdk2/cyclin E.
With `O=C(Nc1cccc2c1C(=O)c1c(-c3ccc(CNCc4ccccn4)cc3)n[nH]c1-2)NN1CCOCC1` [Compound B13], the IC50 on Cdc2/cyclin B was less than 100 nM.
The compound `O=C(Nc1cccc2c1C(=O)c1c(-c3ccc(CNCC(O)CO)cc3)n[nH]c1-2)NN1CCOCC1` (stereo not shown) [Compound B11] showed a half-inhibitory concentration (IC50) against Cdc2/cyclin B of less than 100 nM.
